Measurements: patent publication US6797720B2, “1,3,4-oxadiazoline derivative and an agent comprising its derivative as active ingredient” (ONO Pharmaceutical Co., Ltd., priority 1999, dated 2004)

Legend:
Type in all cases: biochemical
cathepsin K = molecular target: T1, cathepsin K (Homo sapiens, UniProt P43235); test: Measurement of cathepsin K inhibitory activity; details: Dixon plot, pH 5.5, 37° C.
T1 sequence (P43235 115-329): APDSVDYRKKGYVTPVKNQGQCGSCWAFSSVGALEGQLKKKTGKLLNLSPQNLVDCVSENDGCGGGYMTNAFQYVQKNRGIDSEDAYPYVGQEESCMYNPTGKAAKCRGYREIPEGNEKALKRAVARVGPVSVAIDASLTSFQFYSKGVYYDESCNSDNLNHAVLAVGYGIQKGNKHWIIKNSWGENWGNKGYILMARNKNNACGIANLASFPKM
Experimental: (i) Measurement of Cathepsin K Inhibitory Activity
Cathepsin K enzyme reaction buffer (50 mmol/L 2-(N-morpholino)ethanesulfonate, 2 mmol/L ethylenediamine tetraacetate (EDTA) and 4 mmol/L dithiothreitol (DTT) were mixed to adjust to pH 5.5) (65 μL), cysteine protease inhibitor solution (5 μL) of several concentrations, synthesized substrate (t-butyloxycarbonyl-L-alanyl-glycyl-L-prolyl-L-arginine-4-me thyl-chromanyl-7-amide) solution (20 μL) of several concentrations and cathepsin K enzyme solution (10 μL) were mixed and the increase of fluorescence intensity when reacted at 37° C. was measured (λex(excitation wavelength)355 nm, λem (fluorescence wavelength) 460 nm). As to the substrate and the compound of the present invention, enzyme reactions were carried out in combination of several appropriate concentrations, Dixon plotting was prepared, to define the absolute value of X-coordinate of the intersection point of the graph as Ki value.

cathepsin L = cathepsin L (Homo sapiens, UniProt P07711); test: Measurement of cathepsin L inhibitory activity
Experimental: (iv) Measurement of Cathepsin L Inhibitory Activity
Synthesized substrate of several concentrations (carbobenzoxy-L-phenylalanyl-L-arguine-4-methyl-chromanyl-7-amide or L-prolyl-L-phenylalanyl-L-arguinine-4-methyl-chromanyl-7-amide) solution (5 μL), cysteine protease inhibitor solution (5 μL) of several concentrations, cathepsin L enzyme reaction buffer (400 mmol/L acetic acid, 4 mmol/L EDTA, 8 mmol/L DTT were mixed to adjust to pH 5.5) 80 μL and cathepsin L enzyme solution (10 μL) were mixed and the increase of fluorescence intensity was measured (λex=355 nm, λem=460 nm) when reacted at 37° C.

cathepsin B = cathepsin B (Homo sapiens, UniProt P07858); test: Measurement of cathepsin B inhibitory activity
Experimental: (ii) Measurement of Cathepsin B Inhibitory Activity
Synthesized substrate of several concentrations (carbobenzoxy-L-arginyl-L-arginine-4-methyl-chromanyl-7-amide or carbobenzoxy-L-phenylalanyl-L-arginine-4-methyl-chromanyl-7-amide) solution (10 μL), cysteine protease inhibitor solution of several concentrations (10 μL), cathepsin B enzyme reaction buffer (mixture of 400 mmol/L in acetic acid, 4 mmol/L EDTA, 8 mmol/L DDT to adjust to pH 5.5) 70 μL and cathepsin B enzyme solution 10 μL were mixed and the increase of fluorescence intensity was measured (λex=355 nm, λem=460 nm) when reacted at 37° C.

cathepsin S = cathepsin S (Homo sapiens, UniProt P25774); test: Measurement of cathepsin S inhibitory activity
Experimental: (iii) Measurement of Cathepsin S Inhibitory Activity
Synthesized substrate of several concentrations (carbobenzoxy-L-leucyl-L-leucyl-L-arguinine-4-methyl-chroman yl-7-amide) solution (10 μL), cysteine protease inhibitor solution (5 μL) of several concentrations, cathepsin S enzyme reaction buffer (100 mmol/L sodium phosphate, 2 mmol/L EDTA, 2 mmol/L DTT were mixed to adjust to pH 6.5) (75 μL) and cathepsin S enzyme solution (10 μL) were mixed and the increase of fluorescence intensity was measured (λex=355 nm, λem=460 nm) when reacted at 37° C.

cathepsin S, sequence (P25774 115-331, species assumed): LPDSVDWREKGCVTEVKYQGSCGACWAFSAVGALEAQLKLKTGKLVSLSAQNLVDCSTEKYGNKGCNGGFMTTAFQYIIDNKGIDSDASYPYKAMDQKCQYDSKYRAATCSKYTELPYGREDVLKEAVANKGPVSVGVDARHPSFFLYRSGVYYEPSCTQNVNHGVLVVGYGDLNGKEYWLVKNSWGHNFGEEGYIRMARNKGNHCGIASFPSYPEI
cathepsin L, sequence (P07711 114-333, species assumed): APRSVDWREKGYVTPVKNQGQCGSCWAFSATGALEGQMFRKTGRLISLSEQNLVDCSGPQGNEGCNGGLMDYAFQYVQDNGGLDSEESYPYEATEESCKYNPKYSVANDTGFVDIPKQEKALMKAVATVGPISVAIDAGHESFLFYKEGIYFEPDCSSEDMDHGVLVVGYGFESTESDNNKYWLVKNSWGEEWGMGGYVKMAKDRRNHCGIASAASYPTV

Compound	Ki (cathepsin K) [nM]	inhibition at 1 µM (cathepsin L) [%]	inhibition at 1 µM (cathepsin B) [%]	inhibition at 1 µM (cathepsin S) [%]
CC(C)C[C@H](NC(=O)[C@@H]1CCCC[C@@H]1NC(=O)c1ccccc1)C(=O)c1n[nH]c(=O)o1 [example 1]	86	–	–	–
CC(C)C[C@H](NC(=O)OCc1ccccc1)C(=O)N[C@@H](CC(C)C)C(=O)c1n[nH]c(=O)o1 [Example 1 (1), (2S)-N-[(2S)-4-methyl-1-oxo-1-(2-oxo-1,3,4-oxadiazolin-5-yl)-2-pentyl]-4-methyl-2-(benzyloxycarbonylamino)pentanamide]	13	100	97	99
